Laboratory results as given in ChEMBL document CHEMBL1201862, “PubChem BioAssay data set” (2004).
Counter-ions that a name gives are not always drawn. The source made the active and inactive calls.

Columns and labels:
[1] = target: T1, Sentrin-specific protease 8 (Homo sapiens, UniProt Q96LD8); assay type: functional
T1 sequence (Q96LD8 whole entry): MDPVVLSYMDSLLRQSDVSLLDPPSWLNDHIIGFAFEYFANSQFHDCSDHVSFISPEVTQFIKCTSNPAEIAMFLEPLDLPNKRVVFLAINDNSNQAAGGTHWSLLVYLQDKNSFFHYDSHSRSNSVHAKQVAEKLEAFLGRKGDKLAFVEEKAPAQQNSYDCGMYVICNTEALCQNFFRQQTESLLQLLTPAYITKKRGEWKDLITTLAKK

[2] = target: T2, Sentrin-specific protease 7 (Homo sapiens, UniProt Q9BQF6); assay type: functional;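 also: Luminescence-based dose-response confirmation of ultra-high-throughput screening hits, measuring inhibition of SENP7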
T2 sequence (Q9BQF6 whole entry): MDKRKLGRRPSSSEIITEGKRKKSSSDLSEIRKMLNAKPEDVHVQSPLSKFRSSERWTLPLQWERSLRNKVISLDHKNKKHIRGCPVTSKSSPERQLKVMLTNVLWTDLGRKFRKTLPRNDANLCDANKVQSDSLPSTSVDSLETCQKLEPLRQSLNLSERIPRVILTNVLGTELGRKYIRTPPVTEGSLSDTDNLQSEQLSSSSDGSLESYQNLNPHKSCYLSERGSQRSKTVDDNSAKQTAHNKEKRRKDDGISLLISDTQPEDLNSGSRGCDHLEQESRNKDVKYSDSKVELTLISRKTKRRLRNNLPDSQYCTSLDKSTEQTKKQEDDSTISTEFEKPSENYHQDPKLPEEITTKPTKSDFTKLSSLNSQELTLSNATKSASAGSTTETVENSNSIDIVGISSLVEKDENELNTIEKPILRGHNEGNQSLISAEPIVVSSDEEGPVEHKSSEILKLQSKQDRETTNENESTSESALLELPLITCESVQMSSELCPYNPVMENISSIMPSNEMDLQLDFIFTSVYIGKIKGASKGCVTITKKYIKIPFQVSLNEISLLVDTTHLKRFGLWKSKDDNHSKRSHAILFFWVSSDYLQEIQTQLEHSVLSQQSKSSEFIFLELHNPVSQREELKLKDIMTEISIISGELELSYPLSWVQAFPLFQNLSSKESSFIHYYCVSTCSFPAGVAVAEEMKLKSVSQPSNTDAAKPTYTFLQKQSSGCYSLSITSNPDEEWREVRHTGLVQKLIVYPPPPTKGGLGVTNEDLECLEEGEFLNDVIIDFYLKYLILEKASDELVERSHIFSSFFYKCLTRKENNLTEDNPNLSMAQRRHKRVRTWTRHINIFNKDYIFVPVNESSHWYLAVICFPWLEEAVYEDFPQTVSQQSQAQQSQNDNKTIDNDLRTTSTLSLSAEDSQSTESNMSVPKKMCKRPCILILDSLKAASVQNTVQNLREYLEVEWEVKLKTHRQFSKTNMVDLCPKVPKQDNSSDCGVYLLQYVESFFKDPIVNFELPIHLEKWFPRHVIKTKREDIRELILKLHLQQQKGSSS

Caspase-3 = target: T3, Caspase-3 (Homo sapiens, UniProt P42574); assay type: functional;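 also: Dose-response selectivity test against caspase-3 for candidate inhibitors of sentrin-specific proteases (SENPs)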
T3 sequence (P42574 whole entry): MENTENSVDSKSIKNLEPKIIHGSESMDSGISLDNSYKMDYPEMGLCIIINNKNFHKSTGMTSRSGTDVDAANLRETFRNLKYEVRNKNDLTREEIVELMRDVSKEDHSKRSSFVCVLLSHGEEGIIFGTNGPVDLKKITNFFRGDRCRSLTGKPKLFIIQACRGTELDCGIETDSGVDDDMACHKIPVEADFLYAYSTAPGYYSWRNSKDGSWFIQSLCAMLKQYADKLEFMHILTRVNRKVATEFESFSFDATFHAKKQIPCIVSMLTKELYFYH

[3] = target: T4, Sentrin-specific protease 6 (Homo sapiens, UniProt Q9GZR1); assay type: functional;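 also: Luminescence-based dose-response confirmatory assay of SENP6 inhibition, following up an ultra-high-throughput screen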
T4 sequence (Q9GZR1 whole entry): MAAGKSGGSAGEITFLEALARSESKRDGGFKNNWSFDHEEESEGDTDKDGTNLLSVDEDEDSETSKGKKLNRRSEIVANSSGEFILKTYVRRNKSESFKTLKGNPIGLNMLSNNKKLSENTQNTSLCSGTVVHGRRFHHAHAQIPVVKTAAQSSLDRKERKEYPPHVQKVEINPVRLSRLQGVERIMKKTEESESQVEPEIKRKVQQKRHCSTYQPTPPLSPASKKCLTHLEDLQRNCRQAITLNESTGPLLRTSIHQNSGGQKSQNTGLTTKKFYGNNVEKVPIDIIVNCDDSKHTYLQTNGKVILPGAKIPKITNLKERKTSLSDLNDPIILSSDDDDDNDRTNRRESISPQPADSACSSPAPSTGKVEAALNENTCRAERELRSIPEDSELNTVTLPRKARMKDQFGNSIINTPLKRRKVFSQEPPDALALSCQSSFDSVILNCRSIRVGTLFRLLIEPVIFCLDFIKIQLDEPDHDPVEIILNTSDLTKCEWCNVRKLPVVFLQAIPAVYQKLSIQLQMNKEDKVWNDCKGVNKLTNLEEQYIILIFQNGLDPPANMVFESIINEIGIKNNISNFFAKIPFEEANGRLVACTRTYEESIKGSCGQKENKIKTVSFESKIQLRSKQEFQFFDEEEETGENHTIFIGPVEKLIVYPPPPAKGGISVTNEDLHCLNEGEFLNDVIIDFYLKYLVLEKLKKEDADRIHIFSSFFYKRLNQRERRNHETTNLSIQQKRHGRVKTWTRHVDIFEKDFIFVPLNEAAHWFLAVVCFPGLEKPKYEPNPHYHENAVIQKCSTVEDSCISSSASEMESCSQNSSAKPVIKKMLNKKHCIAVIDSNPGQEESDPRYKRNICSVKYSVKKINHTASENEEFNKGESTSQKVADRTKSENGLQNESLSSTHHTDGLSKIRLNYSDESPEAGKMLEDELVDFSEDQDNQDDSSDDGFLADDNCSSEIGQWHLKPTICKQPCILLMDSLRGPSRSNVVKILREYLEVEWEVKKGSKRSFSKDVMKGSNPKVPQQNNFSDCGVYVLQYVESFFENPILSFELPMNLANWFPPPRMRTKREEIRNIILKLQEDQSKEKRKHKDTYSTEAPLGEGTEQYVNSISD

Vero [4] = experiment: Vero cell cytotoxicity, cytotoxicity control for flavivirus capping enzyme inhibitors (AID 588742); assay type: functional; conditions: Chlorocebus sabaeus
Estrogen receptor = target: T5, Estrogen receptor (Homo sapiens, UniProt P03372);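 also: potency for inhibiting coactivator peptide recruitment to the receptor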
T5 sequence (P03372 whole entry): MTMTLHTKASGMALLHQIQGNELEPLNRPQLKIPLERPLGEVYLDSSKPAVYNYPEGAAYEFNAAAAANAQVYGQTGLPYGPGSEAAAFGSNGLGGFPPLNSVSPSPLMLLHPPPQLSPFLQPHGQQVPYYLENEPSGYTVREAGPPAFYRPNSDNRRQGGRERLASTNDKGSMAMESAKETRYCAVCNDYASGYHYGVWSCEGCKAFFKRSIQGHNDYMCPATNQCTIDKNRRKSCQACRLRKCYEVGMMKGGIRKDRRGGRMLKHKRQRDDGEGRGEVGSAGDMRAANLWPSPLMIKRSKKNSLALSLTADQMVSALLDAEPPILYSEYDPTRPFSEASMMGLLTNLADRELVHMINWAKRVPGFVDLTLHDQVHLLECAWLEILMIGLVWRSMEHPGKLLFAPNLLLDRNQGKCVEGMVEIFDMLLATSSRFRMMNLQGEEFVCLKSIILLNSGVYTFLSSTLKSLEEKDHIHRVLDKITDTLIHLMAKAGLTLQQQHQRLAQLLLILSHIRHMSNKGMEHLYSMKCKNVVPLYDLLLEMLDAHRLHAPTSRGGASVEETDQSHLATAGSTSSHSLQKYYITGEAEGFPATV

Genome polyprotein = Genome polyprotein (dengue virus type 2, UniProt P29990); experiment: Dengue-2 NS5 methyltransferase inhibitors, primary screen, biochemical, confirmation dose response (AID 588689); assay type: functional
Chain of Genome polyprotein (P29990 2492-3391 limits assumed): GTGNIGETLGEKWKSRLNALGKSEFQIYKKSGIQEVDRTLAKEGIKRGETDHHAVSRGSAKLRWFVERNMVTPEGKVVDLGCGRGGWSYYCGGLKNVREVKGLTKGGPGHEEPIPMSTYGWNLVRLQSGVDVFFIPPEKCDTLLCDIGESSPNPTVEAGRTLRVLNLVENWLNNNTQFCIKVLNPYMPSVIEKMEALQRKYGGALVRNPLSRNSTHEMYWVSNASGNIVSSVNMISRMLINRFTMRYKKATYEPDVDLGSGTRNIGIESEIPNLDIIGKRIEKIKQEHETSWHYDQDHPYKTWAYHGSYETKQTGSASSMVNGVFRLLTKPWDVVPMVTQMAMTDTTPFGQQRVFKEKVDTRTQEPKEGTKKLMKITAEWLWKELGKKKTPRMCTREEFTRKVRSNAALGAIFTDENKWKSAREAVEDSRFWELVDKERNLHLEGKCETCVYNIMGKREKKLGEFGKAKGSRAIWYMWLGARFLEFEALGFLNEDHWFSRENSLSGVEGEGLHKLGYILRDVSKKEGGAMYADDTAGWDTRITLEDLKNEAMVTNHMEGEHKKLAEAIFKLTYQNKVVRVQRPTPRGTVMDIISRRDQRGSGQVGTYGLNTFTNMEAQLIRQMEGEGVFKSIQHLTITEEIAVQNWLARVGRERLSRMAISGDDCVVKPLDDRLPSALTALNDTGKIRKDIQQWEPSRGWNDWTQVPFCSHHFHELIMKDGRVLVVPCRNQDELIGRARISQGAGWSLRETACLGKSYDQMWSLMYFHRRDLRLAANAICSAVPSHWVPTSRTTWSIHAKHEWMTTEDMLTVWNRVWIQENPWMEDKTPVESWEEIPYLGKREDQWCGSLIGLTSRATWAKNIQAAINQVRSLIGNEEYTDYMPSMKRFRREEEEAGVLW

[5] = target: Ras and Rab interactor 1/Tyrosine-protein kinase ABL1 (Homo sapiens, UniProt P00519+Q13671); assay type: functional;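 also: biochemical TR-FRET dose-response test measuring inhibition of binding between Rin1 and Abl proteins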
Chain of Ras and Rab interactor 1/Tyrosine-protein kinase ABL1 (P00519 whole entry): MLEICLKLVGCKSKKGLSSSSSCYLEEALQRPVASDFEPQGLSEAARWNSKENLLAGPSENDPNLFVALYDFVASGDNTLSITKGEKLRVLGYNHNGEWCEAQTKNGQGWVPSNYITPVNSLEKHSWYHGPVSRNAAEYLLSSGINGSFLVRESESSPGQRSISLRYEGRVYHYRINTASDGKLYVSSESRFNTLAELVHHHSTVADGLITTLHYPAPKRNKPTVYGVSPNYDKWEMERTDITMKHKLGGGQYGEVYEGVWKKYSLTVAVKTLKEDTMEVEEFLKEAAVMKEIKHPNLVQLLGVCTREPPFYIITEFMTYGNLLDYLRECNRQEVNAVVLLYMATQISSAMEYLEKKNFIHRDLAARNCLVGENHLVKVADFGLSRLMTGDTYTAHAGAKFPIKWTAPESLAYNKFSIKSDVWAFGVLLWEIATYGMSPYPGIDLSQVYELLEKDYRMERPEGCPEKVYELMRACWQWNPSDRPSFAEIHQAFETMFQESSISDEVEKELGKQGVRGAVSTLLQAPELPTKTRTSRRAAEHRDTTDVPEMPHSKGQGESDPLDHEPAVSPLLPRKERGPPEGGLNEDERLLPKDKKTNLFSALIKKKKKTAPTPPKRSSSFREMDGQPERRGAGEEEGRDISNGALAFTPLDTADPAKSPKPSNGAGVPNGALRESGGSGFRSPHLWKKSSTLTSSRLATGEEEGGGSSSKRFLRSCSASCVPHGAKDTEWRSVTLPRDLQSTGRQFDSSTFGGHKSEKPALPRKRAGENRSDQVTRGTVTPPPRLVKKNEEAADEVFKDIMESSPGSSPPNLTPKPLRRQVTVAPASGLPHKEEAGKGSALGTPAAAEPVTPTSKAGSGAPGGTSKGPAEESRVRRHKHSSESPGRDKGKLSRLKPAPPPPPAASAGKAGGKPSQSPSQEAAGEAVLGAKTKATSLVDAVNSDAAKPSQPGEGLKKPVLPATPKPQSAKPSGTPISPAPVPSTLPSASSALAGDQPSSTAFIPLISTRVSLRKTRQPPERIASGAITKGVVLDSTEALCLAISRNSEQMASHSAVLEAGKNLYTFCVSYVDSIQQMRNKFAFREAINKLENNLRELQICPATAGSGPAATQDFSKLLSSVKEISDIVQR
Chain of Ras and Rab interactor 1/Tyrosine-protein kinase ABL1 (Q13671 whole entry): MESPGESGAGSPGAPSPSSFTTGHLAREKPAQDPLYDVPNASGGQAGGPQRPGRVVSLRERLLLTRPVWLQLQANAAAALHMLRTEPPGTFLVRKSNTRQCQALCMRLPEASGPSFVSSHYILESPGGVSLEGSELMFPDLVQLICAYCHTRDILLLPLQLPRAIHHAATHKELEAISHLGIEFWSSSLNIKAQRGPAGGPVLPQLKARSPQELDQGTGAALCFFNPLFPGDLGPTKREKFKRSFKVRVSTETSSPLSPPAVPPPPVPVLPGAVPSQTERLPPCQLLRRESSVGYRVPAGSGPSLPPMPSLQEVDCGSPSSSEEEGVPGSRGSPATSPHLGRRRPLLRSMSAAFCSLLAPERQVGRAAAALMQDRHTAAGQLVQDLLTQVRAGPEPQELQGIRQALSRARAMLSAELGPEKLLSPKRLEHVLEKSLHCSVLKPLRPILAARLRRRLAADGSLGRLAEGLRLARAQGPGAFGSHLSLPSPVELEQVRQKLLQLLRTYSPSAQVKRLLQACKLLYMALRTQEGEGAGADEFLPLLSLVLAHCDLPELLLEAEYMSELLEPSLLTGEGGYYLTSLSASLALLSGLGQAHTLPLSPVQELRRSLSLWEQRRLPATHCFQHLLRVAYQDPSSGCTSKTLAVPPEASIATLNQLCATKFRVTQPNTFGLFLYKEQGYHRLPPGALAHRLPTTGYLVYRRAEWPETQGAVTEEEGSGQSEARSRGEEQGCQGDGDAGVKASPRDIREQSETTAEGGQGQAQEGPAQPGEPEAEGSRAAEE

Mu-type opioid receptor = Mu-type opioid receptor (Homo sapiens, UniProt P35372); assay type: functional, cell-based;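 also: U2OS cells with beta-arrestin recruitment to OPRM1 by beta-gal complementation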
Chain of Mu-type opioid receptor (P35372 whole entry): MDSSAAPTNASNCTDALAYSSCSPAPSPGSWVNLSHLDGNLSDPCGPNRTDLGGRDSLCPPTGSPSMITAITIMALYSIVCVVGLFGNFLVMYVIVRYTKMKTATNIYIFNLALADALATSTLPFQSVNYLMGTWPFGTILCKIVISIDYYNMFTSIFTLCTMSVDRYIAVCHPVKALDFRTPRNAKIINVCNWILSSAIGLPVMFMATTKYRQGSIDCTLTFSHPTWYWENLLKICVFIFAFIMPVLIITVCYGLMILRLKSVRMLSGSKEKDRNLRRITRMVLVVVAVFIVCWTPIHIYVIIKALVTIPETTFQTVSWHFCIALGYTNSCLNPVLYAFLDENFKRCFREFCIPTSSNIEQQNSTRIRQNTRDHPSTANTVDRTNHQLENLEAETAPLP

[6] = target: 5-hydroxytryptamine receptor 2A (Mus musculus, UniProt P35363); assay type: functional, cell-based;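 also: CHO-K1 cells with tagged receptor and beta-arrestin; agonist potency measured as compound-induced activation of the receptor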
Chain of 5-hydroxytryptamine receptor 2A (P35363 whole entry): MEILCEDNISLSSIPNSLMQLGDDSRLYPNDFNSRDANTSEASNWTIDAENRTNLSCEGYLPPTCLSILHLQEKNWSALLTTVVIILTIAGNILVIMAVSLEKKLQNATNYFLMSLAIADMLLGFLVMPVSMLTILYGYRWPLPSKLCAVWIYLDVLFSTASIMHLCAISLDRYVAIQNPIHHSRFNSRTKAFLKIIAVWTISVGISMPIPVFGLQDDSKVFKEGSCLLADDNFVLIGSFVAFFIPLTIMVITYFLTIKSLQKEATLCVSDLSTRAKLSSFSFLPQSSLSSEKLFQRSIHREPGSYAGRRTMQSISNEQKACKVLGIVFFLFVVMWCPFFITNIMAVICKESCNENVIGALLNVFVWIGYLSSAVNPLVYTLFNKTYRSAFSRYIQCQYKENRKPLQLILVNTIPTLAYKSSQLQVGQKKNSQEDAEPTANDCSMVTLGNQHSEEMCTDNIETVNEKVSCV

[7] = THP-1 cell cytotoxicity, dose response, cytotoxicity control for non-replicating M. tuberculosis project (AID 489025); assay type: functional
[8] = HepG2 cell cytotoxicity, dose response, cytotoxicity control for non-replicating M. tuberculosis project (AID 489018); assay type: functional; conditions: Mycobacterium tuberculosis
[9] = THP-1 cell cytotoxicity, dose response, cytotoxicity control for Vif-APOBEC3G degradation inhibitor project, THP-1 cells (AID 1117359); assay type: functional; conditions: Human immunodeficiency virus 1, THP-1
[10] = target: Heat shock protein HSP 90-alpha (Homo sapiens, UniProt P07900); assay type: functional, organism-based
Vero [11] = experiment: cells; assay type: functional; conditions: Chlorocebus sabaeus
Protein Tat = target: T6, Protein Tat (Human immunodeficiency virus type 1 group M subtype B (isolate HXB2)(HIV-1), UniProt P04608); assay type: functional;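 also: tat binding to TAR RNA read out by fluorescence polarization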
T6 sequence (P04608 whole entry): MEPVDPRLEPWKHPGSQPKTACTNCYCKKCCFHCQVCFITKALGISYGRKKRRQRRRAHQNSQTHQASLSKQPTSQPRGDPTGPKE

Nonstructural protein 1 = Nonstructural protein 1 (Influenza A virus, UniProt Q194T2); assay type: functional, Influenza A virus (A/California/07/2009(H1N1))
Chain of Nonstructural protein 1 (Q194T2 whole entry): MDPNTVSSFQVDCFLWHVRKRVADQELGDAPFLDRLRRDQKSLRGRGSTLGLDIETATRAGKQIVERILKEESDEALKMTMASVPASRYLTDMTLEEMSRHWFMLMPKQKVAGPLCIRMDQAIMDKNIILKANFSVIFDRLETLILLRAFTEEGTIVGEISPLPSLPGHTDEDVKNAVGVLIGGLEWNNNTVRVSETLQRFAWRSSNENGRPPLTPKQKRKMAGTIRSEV

[12] = Shn3 3'UTR reporter inhibitors, dose response, cell-based, Clone20 osteoblasts, firefly luciferase, cherry-picked (AID 624132); assay type: functional;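 also: firefly luciferase luminescence from reporter carrying the Shn3 3'UTR in osteoblasts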
Paired box protein Pax-8 = Paired box protein Pax-8 (Homo sapiens, UniProt Q06710); experiment: inhibitors of PAX8-driven TPO luciferase reporter, dose response, RMG-I cells, cherry-pick (AID 687027); assay type: functional, cell-based;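 also: luciferase reporter driven by Pax8 target thyroperoxidase promoter measured by SteadyGlo luminescence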
Chain of Paired box protein Pax-8 (Q06710 whole entry): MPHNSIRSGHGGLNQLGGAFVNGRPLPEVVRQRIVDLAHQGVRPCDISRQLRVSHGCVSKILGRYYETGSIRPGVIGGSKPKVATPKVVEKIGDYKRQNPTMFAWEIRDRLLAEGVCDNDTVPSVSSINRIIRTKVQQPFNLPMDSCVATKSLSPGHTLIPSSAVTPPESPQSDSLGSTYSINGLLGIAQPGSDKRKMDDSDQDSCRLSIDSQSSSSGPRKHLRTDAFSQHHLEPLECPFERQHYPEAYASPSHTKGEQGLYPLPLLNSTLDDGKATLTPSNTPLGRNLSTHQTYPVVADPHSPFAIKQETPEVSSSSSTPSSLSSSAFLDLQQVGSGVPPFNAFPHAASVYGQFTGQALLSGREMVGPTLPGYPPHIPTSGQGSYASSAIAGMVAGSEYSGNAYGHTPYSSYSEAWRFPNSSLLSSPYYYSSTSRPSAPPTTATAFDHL

[13] = control 3'UTR Renilla luciferase suppression, dose response, counter-screen for Shn3 inhibitor project, cell-based, Clone20-Shn3RL, cherry-picked (AID 624133); assay type: functional
[14] = HepG2 cell cytotoxicity, dose response, cytotoxicity control for Shn3 inhibitor project, CellTiter-Glo, cherry-picked (AID 624134); assay type: functional, cell-based
[15] = target: T1, Sentrin-specific protease 8; assay type: functional; remark: listed apart in the source
[16] = target: T1, Sentrin-specific protease 8; assay type: functional; remark: listed apart in the source
[17] = target: T7, DNA repair protein RAD52 homolog (Homo sapiens, UniProt P43351); assay type: functional, biochemical
T7 sequence (P43351 whole entry): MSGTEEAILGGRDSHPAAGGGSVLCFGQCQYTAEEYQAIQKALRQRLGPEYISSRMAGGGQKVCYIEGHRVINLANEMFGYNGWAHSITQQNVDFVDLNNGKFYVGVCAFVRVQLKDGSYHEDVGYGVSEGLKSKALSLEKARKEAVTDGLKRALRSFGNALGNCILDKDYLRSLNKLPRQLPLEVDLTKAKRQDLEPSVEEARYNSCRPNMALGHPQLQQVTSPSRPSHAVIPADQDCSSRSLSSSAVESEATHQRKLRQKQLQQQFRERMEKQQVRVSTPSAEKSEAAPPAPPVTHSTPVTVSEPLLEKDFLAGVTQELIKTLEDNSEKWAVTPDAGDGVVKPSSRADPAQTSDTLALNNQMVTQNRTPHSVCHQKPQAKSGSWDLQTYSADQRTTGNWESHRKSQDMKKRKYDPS

COc1ccc(C(N)=NOC(=O)Cc2cccs2)cc1
IC50 [1]: 6.43 µM (active) | IC50 [2]: 11.3 µM (active) | IC50 (Caspase-3): 32 µM (active) | IC50 [3]: 37.2 µM (active)

Cc1cc(C)c2nc(-c3ccccn3)cc(C(=O)NCc3ccco3)c2c1
CC50 (Vero [4]): > 40 µM (active) | IC50 (Estrogen receptor): > 50 µM (not active)

Cc1nn(-c2cccc(Cl)c2)c2nc(-c3ccco3)cc(C(=O)O)c12
CC50 (Vero [4]): > 40 µM (active) | IC50 (Genome polyprotein): > 100 µM (active)

COc1ccc(C(=O)COC(=O)c2n[nH]c3ccccc23)c(OC)c1
IC50 [1]: 40.3 µM (active) | IC50 [2]: 8.72 µM (active) | IC50 (Caspase-3): 33 µM (active) | IC50 [3]: 29.9 µM (active)

COc1cc2c(C(=O)N3CCN(c4cccc(Cl)c4)CC3)cn(C)c(=O)c2cc1OC
IC50 [5]: 20.5 µM (inactive)

Clc1ncc(CN2CCN(c3ccccc3)CC2)s1
EC50 (Mu-type opioid receptor): 92.5 µM (inactive) | EC50 [6]: 0.815 µM (active)

CCSc1nsc(NC(=O)Nc2ccc(F)cc2F)n1
IC50 [1]: > 100 µM (inactive) | IC50 [2]: 13.7 µM (active) | CC50 [7]: 28.3 µM (active) | IC50 (Caspase-3): 39.5 µM (active) | IC50 [3]: > 100 µM (inactive) | CC50 [8]: > 20 µM (active)

O=[N+]([O-])c1cc2no[n+]([O-])c2cc1N1CCCCC1
CC50 [9]: 36.9 µM (active) | AC50 [10]: 1.62 µM (active) | CC50 (Vero [11]): 24.7 µM (active) | CC50 (Vero [4]): 27.6 µM (active) | IC50 (Protein Tat): > 100 µM (active) | IC50 (Nonstructural protein 1): 31.7 µM (active) | IC50 (Genome polyprotein): 6.38 µM (active)

COc1cccc(C(c2nnnn2-c2ccc3c(c2)OCCO3)N2CCC(n3c(O)nc4ccccc43)CC2)c1OC (centres undefined)
AC50 [12]: 3.74 µM (active) | IC50 [5]: > 73.4 µM (inactive) | AC50 (Paired box protein Pax-8): 1.52 µM (active) | AC50 [13]: 5.67 µM (active) | AC50 [14]: > 70 µM (inactive)

Cc1cc(C)cc(/N=C/c2ccc([N+](=O)[O-])s2)c1
AC50 [10]: 4.15 µM (active) | IC50 [15]: 14.1 µM (active) | IC50 [16]: 2.56 µM (active)

C=CCN1CCc2nc(N)sc2CC1 [TALIPEXOLE HYDROCHLORIDE]
EC50 (Mu-type opioid receptor): 92.6 µM (inactive) | AC50 [17]: 6.04 µM (active) | EC50 [6]: 0.0137 µM (active)
